Test results: US6849405B2, “Translation enhancer element of the human amyloid precursor protein gene” (The Brigham and Women's Hospital, Inc., priority 1997, dated 2005)
Where “and” joins values, the source holds several entries; their conditions need not be identical. Equal entries are not always repeated.

Columns and labels:
[1] = test system: ACT-mRNA; test: Northern blot of ACT-mRNA, astrocytoma cells; type: cell-based, human; settings: Northern blot, 16 hours stimulation
Procedure: Total RNA (10 μg) was extracted from primary astrocytes and astrocytoma cells with a RNA-STAT kit (Tel-Test). RNA samples were denatured in 50% formamide/2.2 M formaldehyde/20 mM MOPS/5 mM sodium acetate/0.5 mM EDTA, pH 7.4, at 60° C. for 10 minutes, electrophoresed on 1.0% agarose-formaldehyde gels, blotted onto Hybond-N filters and immobilized by UV crosslinking and heating filters to 80° C. Filters were prehybridized for 3 hours and hybridized overnight in a solution consisting of 50% formamide, […] denatured salmon sperm DNA, 5×SSC, 0.1% sodium dodecyl sulfate and 5×Denhardt's solution. Following hybridization, filters were washed twice for a total of 1 hour in 2×SSC/0.2% sodium dodecyl sulfate at room temperature and twice each for a total of 1 hour in 0.5×SSC/0.1% sodium dodecyl sulfate at 55° C. Equal loading was verified by ethidium bromide staining, non-specific hybridization of the ACT probe to the 28S rRNA, and by standardized hybridization to the GAPDH cDNA probe as an internal standard. The APP cDNA probe corresponded to the unique internal 1 kb fragment gel purified from the 3 kb APP cDNA (Kang et al. Nature 325: 733 (1987)), the ACT cRNA probe to a PstI/SacI fragment (536-943) in the human ACT cDNA (Chandra, et al., Biochemistry 22: 5055 (1983)) and the GAPDH probe to the human GAPDH gene (Tokunaga, et al., Cancer Res. 47: 5616 (1987)).

[2] = test system: APP mRNA 5′ UTR (pSV2(APP)CAT reporter); test: CAT reporter activity in pSV2(APP)CAT-transfected astrocytoma cells; type: cell-based, human; settings: for increase in CAT activity, maximal: pSV2(APP)CAT-transfected astrocytoma cells
Procedure: The pSV2(APP)CAT construct contains the APP gene 5′ UTR in between the SmaI and the NruI sites (+52 nt and +142 nt from the 5′ cap site respectively). pSV2(APP)CAT was prepared by two steps of subcloning. (1) A 3 kb SmaI-HindIII fragment containing the APP gene, including the coding region and a segment of the 3′ UTR was subcloned into compatible StuI-HindIII sites unique to the 5′ UTR of the CAT gene in the pSV2CAT expression vector. (2) The APP gene fragment in between the NruI and HindIII sites was removed from the construct. The restriction sites were then blunt-ended and religated. In the pSV2(APP)CAT transfectants, 90 nt of the APP gene 5′ UTR were expressed as part of a chimeric […] 5′ leader in the 1.5 kb APP/CAT transcript. The pSV2CAT construct contains the 5′ end of the CAT gene inserted into the unique polylinker site in pBluescript. A 250 nt HindIII/EcoRI fragment from the CAT gene in pSV2CAT was subcloned into the pBS vector (Stratagene). The CAT gene fragment codes for 36 nt of the CAT gene 5′ UTR and 218 bp of the 5′ end of the coding sequence of the CAT gene.
Astrocytoma and neuroblastoma cells were transfected with pSV2CAT or pSV2(APP)CAT by lipofection. Briefly, lipofectamine reagent (Boehringer) was added to DMEM (without serum) and allowed to sit 30 minutes at room temperature. Plasmids (10 μg) in an equal volume of DMEM were then added, and, after sitting for 45 minutes at room temperature, the lipid/DNA solution was added to 60% confluent cells on 100×20 mm cell culture plates. After 4 hours, this solution was removed, and the cells were washed twice in DMEM (without serum). Fresh DMEM medium (containing 10% fetal calf serum) was added. At this time, treatments were administered which included: (1) 0.5 ng/ml IL-1α; (2) 0.5 ng/ml IL-1β; (3) 5 μM Fe2TF (holo-transferrin); and (4) unstimulated controls. […]
After harvesting, cells were resuspended in 100 μl 0.25 M Tris, pH 7.8, and subjected to three cycles of freezing (liquid nitrogen) and […] (37° C.) to lyse cells. […] Protein concentration was determined by a Biorad assay, and exactly 20 μg of lysate was added to a CAT reaction mix containing 50 μl 1M Tris, pH 7.8, 20 μl acetylcoenzyme-A (3.5 mg/ml) and […] ^14C-labeled chloramphenicol (25 mCi/ml). […] For quantitative analysis, the areas on the TLC plates which aligned with dots on the film were excised and the radioactivity was counted in 5 ml of scintillation cocktail (Econofluor) using a scintillation counter (Hewlett Packard). In some experiments, CAT activity was measured by counting the amount of CAT reaction product diffusing into liquid scintillation fluid as described previously (Rogers, et al., Nucl. Acid Res. 22:2678 (1994)). […]

Substance	ACT mRNA transcriptional change [1]	increase in CAT activity, average ([2]; pSV2(APP)CAT transfectants, matching experiments, average)	increase in CAT activity, maximal [2]	enhancement of CAT activity, parallel transfection ([2]; pSV2(APP)CAT transfectants, parallel to the pSV2CAT transfection)
interleukin-1α [IL-1α]	large transcriptional increase	2.3 fold	3 fold and 4 fold	–
interleukin-1β [IL-1β]	large transcriptional increase	–	4 fold	3 fold
